Laboratory results: US20120028967A1 (priority 2009, published 2012)
Structures can show the parent of a compound that is named as a salt.

Biological target: α7-subtype of nicotinic receptors (Rattus norvegicus, UniProt Q05941)
Test: biochemical
Assay type: binding

α7-subtype of nicotinic receptors, sequence (Q05941 23-502): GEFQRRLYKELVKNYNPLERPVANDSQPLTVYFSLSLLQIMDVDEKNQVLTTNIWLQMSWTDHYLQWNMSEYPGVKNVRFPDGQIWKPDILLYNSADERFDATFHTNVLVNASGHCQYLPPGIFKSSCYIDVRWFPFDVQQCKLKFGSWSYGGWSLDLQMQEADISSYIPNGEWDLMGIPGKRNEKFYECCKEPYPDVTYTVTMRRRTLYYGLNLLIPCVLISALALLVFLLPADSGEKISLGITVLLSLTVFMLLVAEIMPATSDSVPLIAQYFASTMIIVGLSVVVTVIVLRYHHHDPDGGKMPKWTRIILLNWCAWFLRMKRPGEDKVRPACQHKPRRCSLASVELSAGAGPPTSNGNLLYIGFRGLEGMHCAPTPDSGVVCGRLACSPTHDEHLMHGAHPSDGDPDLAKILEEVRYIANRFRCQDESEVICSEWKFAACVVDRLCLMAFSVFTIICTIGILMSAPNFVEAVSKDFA

Structure (SMILES) | IC50 [nM]
Brc1cnc(N2CCN3CCC2CC3)nc1 [Compound 1, 4-(5-Bromo-pyrimidin-2-yl)-1,4-diaza-bicyclo[3.2.2]nonane fumaric acid salt] | 280
Ic1cnc(N2CCN3CCC2CC3)nc1 [Compound 2, 4-(5-Iodopyrimidin-2-yl)-1,4-diazabicyclo[3.2.2]nonane fumaric acid salt] | 38
Clc1cnc(N2CCN3CCC2CC3)nc1 [Compound 3, 4-(5-Chloropyrimidin-2-yl)-1,4-diazabicyclo[3.2.2]nonane fumaric acid salt] | 190
